Measurements published in ChEMBL document CHEMBL1201862, “PubChem BioAssay data set” (2004).
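Compound exposure: 48 hours, 5 concentrations, 96-well plates. Abbreviation: GI50, concentration required for 50% inhibition of growth.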 The source made the active and inactive calls. Cut-off read from the data, not from the text of the source: active = GI50 up to about 1.1 µM and inactive = higher.

What was measured:
Assay in all cases: growth of human tumour cells (NCI), 48 h
A498 = tested on: A498
A549 = tested on: A549
CCRF-CEM = tested on: CCRF-CEM
EKVX = tested on: EKVX
HL-60 = tested on: HL-60
Hs-578T = tested on: Hs-578T
K562 = tested on: K562
MDA-MB-231 = tested on: MDA-MB-231
NCI-H460 = tested on: NCI-H460
OVCAR-3 = tested on: OVCAR-3
OVCAR-8 = tested on: OVCAR-8
RXF 393 = tested on: RXF 393
SF-268 = tested on: SF-268
SF-295 = tested on: SF-295
SK-MEL-5 = tested on: SK-MEL-5
SK-OV-3 = tested on: SK-OV-3
SNB-19 = tested on: SNB-19
SR = tested on: SR
SW-620 = tested on: SW-620
T47D = tested on: T47D

Measured: GI50

O=C1Nc2ccc(S(=O)(=O)O)cc2/C1=C1/Nc2ccc(Br)cc2C1=O
inactive: A498 > 100 µM | A549 > 100 µM | CCRF-CEM > 100 µM | EKVX > 100 µM | HL-60 > 100 µM | Hs-578T > 100 µM | K562 > 100 µM | MDA-MB-231 > 100 µM | NCI-H460 > 100 µM | OVCAR-3 > 100 µM | OVCAR-8 > 100 µM | RXF 393 > 100 µM | SF-268 > 100 µM | SF-295 > 100 µM | SK-MEL-5 > 100 µM | SK-OV-3 > 100 µM | SNB-19 > 100 µM | SR > 100 µM | SW-620 > 100 µM | T47D > 100 µM

COc1ccc2nc3cc(Cl)ccc3c(Nc3ccccc3-c3ccccc3Nc3c4ccc(Cl)cc4nc4ccc(OC)cc34)c2c1
inactive: A498 > 56.5 µM | A549 45.2 µM | CCRF-CEM 4.52 µM | EKVX 52 µM | HL-60 2.66 µM | Hs-578T 27.7 µM | K562 4.63 µM | MDA-MB-231 26.9 µM | NCI-H460 33.6 µM | OVCAR-3 45.4 µM | OVCAR-8 28.5 µM | RXF 393 14.9 µM | SF-268 31.9 µM | SF-295 33 µM | SK-MEL-5 18.1 µM | SK-OV-3 > 75.7 µM | SNB-19 40.4 µM | SR 3.5 µM | SW-620 15.4 µM | T47D 13.1 µM

Clc1ccc(C(c2ccccc2Cl)C(Cl)Cl)cc1 (stereo not given) [MITOTANE]
inactive: A498 20.2 µM | A549 15.1 µM | CCRF-CEM 17.7 µM | EKVX 17.3 µM | HL-60 18.7 µM | Hs-578T 3.26 µM | K562 16.3 µM | MDA-MB-231 3.39 µM | NCI-H460 17.3 µM | OVCAR-3 15.6 µM | OVCAR-8 20.7 µM | RXF 393 11.6 µM | SF-268 18.5 µM | SF-295 16.2 µM | SK-MEL-5 15.8 µM | SK-OV-3 18.1 µM | SNB-19 17.6 µM | SR 18.7 µM | SW-620 18 µM | T47D 1.64 µM
